Where “and” joins values, the source holds several entries; their conditions need not be identical. Equal values may be shown once.
Columns and labels:
[1] = Tumor drug measurement (MMAE by LC-MS/MS) after CDX3379-MMAE; assay type: in vivo, mouse; design: unit not given here; conditions: orthotopic CAL27 tongue xenografts (methods: CAL27 PIK3CA H1047R cells, NOD SCID), 2.5 nmoles CDX3379-MMAE i.v., tumors harvested 48 h, one value per tumor, vehicle 1.606, 2.873, a reviewer reads roughly 100 nM
Method: For CDX3379-MMAE drug measurements, 6-week-old female NOD SCID (University of California San Diego Animal Care Program) were injected orthotopically into the tongue with 150,000 CAL27 PIK3CA H1047R expressing cells in 20 µl of DMEM. After 10 days, mice were intravenously (i.v.) injected through the tail vein with 2.5 nmole of CDX3379-MMAE in 50 µl of PBS. […] Tumors were excised on days indicated in figure legends, weighed, and homogenized in 10 v/w of 2% acetic acid in 1:1 acetonitrile:water with a point sonicator (Fisher Scientific) using an amplitude range of 5–15% for 20 s on ice. Homogenates were centrifuged ([…], 10 min), supernatants collected for drug concentration measurements using LC–MS/MS. Drug concentration was determined by LC–MS/MS with Luna-2 C18 column and Agilent Trap XCT mass spectrometer. For MMAE tissue concentrations, integrated ion currents for m/z 682.4, 496.4 and m/z 686.4, 506.4 extracted from fragmented m/z 740.4 and 718.4, respectively, were combined. The total ion current was fit to a standard curve generated for each drug to quantitate tissue drug concentration.

[2] = Pilot dose studies of CDX3379-MMAE ADC (response to reviewers); assay type: in vivo
Method: compares to MMAE in immune-competent cancer models. We have now tested the hypothesis raised by the Reviewer head on and present new data (Fig. 3h). First, we successfully synthesized a CDX3379-MMAF ADC (Supplementary Figs. 2c & 2d). Then, we tested CDX3379-MMAE + IR to […] directly in B16 […]
these findings, we hypothesize that MMAE mediated bystander effects improve radiosensitized tumor control when compared to MMAF tumor cell radiosensitization and continue with MMAE as our lead radiosensitizing […]
Comment 2: “authors claim that in syngeneic model MMAE lacked therapeutic efficacy irrespective of the coupled tumor-directed delivery vehicle. However, comparison here is misleading, as they compare MMAE activity coupled to an antibody vs a penetrating peptide. Instead, in order to fully address the concept that auristatin MMAE has limited antitumor activity in a syngeneic model a more appropriate control should be used, that is a MMAE coupled to a different mAb targeting other antigen (receptor). In addition, this would reinforce the evidence about the potential of ADC therapy in combination with IR in immunocompetent mouse […]
Response: In principle, we agree with the sentiment raised by the Reviewer to have another ADC targeting a different cell surface receptor. […]

[3] = test system: 4NQO-induced tongue tumors; conditions: 10 nmoles ACPP-MMAE x 2 doses + whole tongue IR 5 Gy x 2 at week 20; tongues at week 22; vs untreated control
Method: 4-Nitroquinoline N-oxide (4NQO, Sigma Aldrich-N8141) was dissolved in propylene glycol as a stock solution (4 mg/ml) and further diluted in drinking water to a final concentration of 50 μg/ml. […] Since the entire tongue was exposed to 4NQO, the whole tongue was delineated and given 5 Gy × 2 using PXI SmART irradiator with 225 kVp X-ray tube. IR was delivered as 2 parallel opposed fields. All mice were given a full oral cavity examination biweekly, and any observed pathological changes were documented. On week 22, animals were euthanized, and tissues and oral pharynx were fixed in PAXgene tissue FIX (Qiagen) at room temperature for 12 h. Tissues were then transferred to 70% ethanol and paraffin embedded. Tongue sections were H&E stained and histopathologically assessed for the number and size of carcinoma lesions per tongue by a qualified Pathologist (A.A.M.) who was blinded manner to treatment of each slide.

| Substance | Tumor MMAE concentration [1] | anti-tumor activity in pilot studies ([2]; 1 nmole CDX3379-MMAE) | anti-tumor activity in pilot studies ([2]; 5 nmoles CDX3379-MMAE) | total tumor burden [3] |
| --- | --- | --- | --- | --- |
| CDX3379-MMAE: anti-HER3 antibody CDX3379 with 4 MMAE per antibody via MC-VC-PABC linker, labeled with Cy5 | 124.8 and 143.8 and 123.3 and 91.37 | ineffective | anti-tumor activity |  |
| cyclo(RGD)fc-MC-HN-peg8-e9-oPLGC(Me)AG-r9-c-(MC-VC-PABC-MMAE)-CONH2 [ACPP-MMAE] |  |  |  | significantly decreased total tumor burden |
